# How the values were obtained:
# [1] = Stability of Ru(III) complexes in phosphate buffer by UV-vis spectrophotometry; format: physicochemical; details: 20 mM phosphate buffer pH 7.4, 100 mM NaCl, 37 °C
# Procedure: The stability of Ru(III) complexes (15–20) was investigated in a solution resembling physiological conditions (20 mM of phosphate buffer, pH 7.4, and 100 mM of NaCl at 37 °C) by UV-vis spectrophotometry (Table 1). The half-transformation time t1/2 was calculated based on changes in the electronic absorption spectrum (Figure S1) and defined as the value of t at the Alin/2 point. ΔA(t) was plotted against λmax; the initial section was approximated as a linear function.
# The stability of Ru(III) complexes was studied by electron absorption spectroscopy in 20 mM of phosphate buffer, pH 7.4, and 100 mM of NaCl. The working solution (2 mL, 200 μM complex) was prepared by diluting 10 μL of the original 40 mM solution in DMSO and 1.99 mL of phosphate buffer. UV-vis spectra were recorded every 60 s in the range of 280–600 nm at 37 °C. The half-transformation time was t1/2. For λmax, ΔA(t) was plotted, where ΔA = A0–Ai, an initial section, was approximated as a linear function. At ΔAline./2 point calculated as t = t1/2.
# [2] = biological target: T1, isolated rat TrxR1 (rat liver TrxR) (Rattus norvegicus, UniProt O89049); assay: Inhibition of purified TrxR (DTNB reduction); format: biochemical; details: isolated enzyme, 75 min 37 °C preincubation; mean ± SD, three measurements
# T1 construct: Commercially available rat liver TrxR; purchased Sigma Aldrich; host or cells: rat liver
# T1 sequence (O89049 1-499): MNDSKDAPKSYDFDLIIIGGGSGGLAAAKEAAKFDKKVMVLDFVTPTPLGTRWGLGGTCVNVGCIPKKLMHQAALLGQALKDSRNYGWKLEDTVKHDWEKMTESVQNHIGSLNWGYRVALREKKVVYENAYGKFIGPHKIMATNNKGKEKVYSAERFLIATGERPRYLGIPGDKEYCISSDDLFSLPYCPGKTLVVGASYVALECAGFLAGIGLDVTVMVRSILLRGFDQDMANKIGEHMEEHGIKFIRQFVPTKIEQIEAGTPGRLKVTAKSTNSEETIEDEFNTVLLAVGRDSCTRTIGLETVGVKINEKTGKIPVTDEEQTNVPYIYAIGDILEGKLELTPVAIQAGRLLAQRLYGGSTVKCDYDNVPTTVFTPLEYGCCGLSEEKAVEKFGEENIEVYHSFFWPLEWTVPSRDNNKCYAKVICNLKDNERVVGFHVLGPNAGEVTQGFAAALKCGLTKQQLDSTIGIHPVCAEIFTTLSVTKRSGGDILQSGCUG
# Procedure: The activity of TrxR [40, 54] was determined in a microplate format. Commercially available rat liver TrxR (Sigma Aldrich, St. Louis, MO, USA) was diluted with distilled water to 3.5 Unit/mL. In total, 25 μL aliquots of this solution were mixed with 25 μL of a potassium phosphate buffer, pH 7.0, with or without tested compounds. Fifty µL of 0.5% v/v dimethyl formamide in buffer was served as a blank. […] For this purpose, 25 µL of the highest test concentration of each compound and 25 µL of phosphate buffer (no enzyme) were mixed. Samples were incubated with moderate shaking for 75 min at 37 °C in a 96-well plate. To each well, 225 μL of the reaction mixture (500 μL of potassium phosphate buffer, pH 7.0, 80 μL of 100 mM ethylenediaminetetraacetic acid (EDTA), 20 μL of 0.2% bovine serum albumin, 100 μL of 20 mM NADPH (nicotinamide adenine dinucleotide phosphate), and 300 μL of water) was added; the reaction was initiated by the addition of 25 μL of 20 mM DTNB (5,5′-dithiobis(2-nitrobenzoic acid)) solution in ethanol. The formation of 5-TNB was monitored at 405 nm 10 times at 35 s intervals by a VICTOR X4 Plate Reader (Perkin Elmer). […] IC50 values were calculated as the concentration of the compound that decreased the enzymatic activity of the control (no compound) by 50%. Values are mean ± SD of the three independent measurements.
# [3] = test system: HCT116 cells; assay: Annexin V/7-AAD flow cytometry (Muse Annexin V & Dead Cell Kit); format: cell-based; details: HCT116, 24 h; for Annexin V-positive cells: 2xIC50 (50 µM of 16, 20 µM of 20); for early apoptosis (Annexin V/7-AAD) / late apoptosis (Annexin V/7-AAD) / live cells (Annexin V/7-AAD) / necrosis (Annexin V/7-AAD): 2xIC50, one representative experiment
# Procedure: Mechanisms of cell death, that is, Annexin V/7-AAD reactivity and caspase 3/7 activation, were determined for 16 and 20 in HCT116 cells using the Muse® Annexin V & Dead Cell Kit (Luminex corp., Austin, TX, USA) and flow cytometry. Cells were incubated with 16, 20, or cisplatin (reference drug) for 24 h at concentrations corresponding to 2xIC50 values (obtained in MTT assays; Table 4). The percentages of Annexin V-positive cells in response to 16 and 20 were higher than cisplatin (Figure 8). Complex 20 with the C12 linker induced Annexin V positivity slightly more efficiently than 16 with the C3 linker (27.4 ± 2.1% vs. 19.7 ± 0.6%).
# The antiproliferative activity was studied by MTT assays as published previously. For flow cytometry studies, cells were plated into 6-well plates (Eppendorf, Germany; 4 × 10^5 cells in 2 mL of DMEM) and incubated for 24 h. Solutions of complexes in DMSO were prepared immediately prior to the day of the experiments. Cells were treated with either 20 µM of cisplatin, 50 µM of 16, or 20 µM of 20. Concentrations corresponded to two-fold IC50 values based on MTT assays. Cells were incubated for 24 h, pooled, washed with cold PBS, and resuspended in DMEM. Aliquots of cells were processed as recommended in the Muse Annexin V&Dead Cell Kit or Muse Caspase-3/7 Kit (Luminex). Measurements were carried out on a Muse Cell Analyser, Luminex corp., TX, USA.
Substance,t1/2 (half-transformation time) [1],"t1/2 (half-transformation time) ([1]; mean ± SD, three experiments) [s]",IC50 [2] [µM],Annexin V-positive cells [3] [%],early apoptosis (Annexin V/7-AAD) [3] [%],late apoptosis (Annexin V/7-AAD) [3] [%],live cells (Annexin V/7-AAD) [3] [%],necrosis (Annexin V/7-AAD) [3] [%]
Na[trans-Ru(DMSO)(C30H37Cl2N5O)Cl4] [Compound 20],~ 35 min,2150 ± 110,8.5 ± 0.3,27.4 ± 2.1,5,26,69,0
Na[trans-Ru(DMSO)(C21H19Cl2N5O)Cl4] [Compound 16],,330 ± 20,20.4 ± 0.1,19.7 ± 0.6,3,20,78,0
